Measured values from the RepoRT retention time repository.

Assay: HILIC, HILICON iHILIC-(P) Classic, HILIC, PEEK, 50 × 2.1 mm, 5 µm, 30 °C, 0.12 mL/min, estimated dead time 0.92 min; A: water + 20 mM ammonium carbonate + 10 mM ammonium hydroxide; B: acetonitrile; gradient (min/%B) 0/90 1/90 21/20 21.5/20 23.5/20 24.5/90 26/90 26.5/90
Settings: stereoisomer not certain

`Nc1ncnc2c1ncn2C1OC(COP(=O)(O)OP(=O)(O)O)C(O)C1O` (stereo not drawn) [ADP] and `Nc1ncnc2c1ncn2C1OC(COP(=O)(O)OP(=O)(O)OP(=O)(O)O)C(O)C1O` (stereo not drawn) [ATP] are within 1.5-fold of each other in LC retention time: 12.3 min for the first, 13.5 min for the second.

First: Nc1ncnc2c1ncn2C1OC(COP(=O)(O)O)C(O)C1O (stereo not drawn) [AMP]
Second: Nc1ncnc2c1ncn2C1OC(CO)C(O)C1O (stereo not drawn) [Adenosine]
The LC retention time of the first is 2.4-fold higher: 8.72 min for the first, 3.59 min for the second.

First: CC(=O)SCCNC(=O)CCNC(=O)C(O)C(C)(C)COP(=O)(O)OP(=O)(O)OCC1OC(n2cnc3c(N)ncnc32)C(O)C1OP(=O)(O)O (stereo not drawn) [Acetyl-CoA]
Second: NC(=O)C1=CN(C2OC(COP(=O)(O)OP(=O)(O)OCC3OC(n4cnc5c(N)ncnc54)C(OP(=O)(O)O)C3O)C(O)C2O)C=CC1 (stereo not drawn) [NADPH]
The LC retention time of the first is 2-fold lower: 8.53 min for the first, 16.9 min for the second.

First: Nc1ncnc2nc[nH]c12 [Adenine]
Second: Cc1ncc(C[n+]2csc(CCO)c2C)c(N)n1 [Thiamine]
The LC retention time of the first is 3.7-fold lower: 3.45 min for the first, 12.8 min for the second.

`O=C1OC(C(O)CO)C(O)=C1O` (stereo not drawn) [Ascorbic Acid] and `O=P(O)(O)OCC(O)CO` (stereo not drawn) [Glycerol-3-phosphate] are within 1.5-fold of each other in LC retention time: 9.17 min for the first, 10.9 min for the second.

`NC(=O)CC(N)C(=O)O` (stereo not drawn) [Asparagine] and `NC(=O)CCC(N)C(=O)O` (stereo not drawn) [Glutamine] are within 1.5-fold of each other in LC retention time: 10.7 min for the first, 8.38 min for the second.

First: O=C(O)CCCCC1SCC2NC(=O)NC21 (stereo not drawn) [Biotin]
Second: NCCCCC(N)C(=O)O (stereo not drawn) [Lysine]
The LC retention time of the first is 5.7-fold lower: 3.27 min for the first, 18.8 min for the second.

`Nc1ccn(C2OC(COP(=O)(O)OP(=O)(O)O)C(O)C2O)c(=O)n1` (stereo not drawn) [CDP] and `Nc1ccn(C2OC(COP(=O)(O)O)C(O)C2O)c(=O)n1` (stereo not drawn) [CMP] are within 1.5-fold of each other in LC retention time: 13.2 min for the first, 11.1 min for the second.

`O=C(O)CC(O)(CC(=O)O)C(=O)O` [Citric acid] and `O=C(O)CC(C(=O)O)C(O)C(=O)O` (stereo not drawn) [Isocitric acid] are within 1.5-fold of each other in LC retention time: 16.6 min for the first, 16.1 min for the second.

`NC(CSSCC(N)C(=O)O)C(=O)O` (stereo not drawn) [Cystine] and `NC(CCC(=O)O)C(=O)O` (stereo not drawn) [Glutamic acid] are within 1.5-fold of each other in LC retention time: 11.6 min for the first, 9.84 min for the second.

`Nc1ccn(C2OC(CO)C(O)C2O)c(=O)n1` (stereo not drawn) [Cytidine] and `Nc1nc2c(ncn2C2OC(CO)C(O)C2O)c(=O)[nH]1` (stereo not drawn) [Guanosine] are within 1.5-fold of each other in LC retention time: 5.88 min for the first, 6.51 min for the second.

Going from `Nc1nc2ncc(CNc3ccc(C(=O)NC(CCC(=O)O)C(=O)O)cc3)nc2c(=O)[nH]1` (stereo not drawn) [Folic Acid] to `NC(CCC(=O)NC(CS)C(=O)NCC(=O)O)C(=O)O` (stereo not drawn) [GSH], the LC retention time falls from 14.3 min to 8.79 min (1.6-fold).

`O=P(O)(O)OCC1OC(O)(COP(=O)(O)O)C(O)C1O` (stereo not drawn) [Fructose-1,6-bisphosphate] and `O=c1ccn(C2OC(COP(=O)(O)OP(=O)(O)O)C(O)C2O)c(=O)[nH]1` (stereo not drawn) [UDP] are within 1.5-fold of each other in LC retention time: 16 min for the first, 12.3 min for the second.

`Nc1nc2c(ncn2C2OC(COP(=O)(O)OP(=O)(O)O)C(O)C2O)c(=O)[nH]1` (stereo not drawn) [GDP] and `Nc1nc2c(ncn2C2OC(COP(=O)(O)OP(=O)(O)OP(=O)(O)O)C(O)C2O)c(=O)[nH]1` (stereo not drawn) [GTP] are within 1.5-fold of each other in LC retention time: 14.8 min for the first, 17 min for the second.

Going from `Nc1nc2c(ncn2C2OC(COP(=O)(O)O)C(O)C2O)c(=O)[nH]1` (stereo not drawn) [GMP] to `O=c1ccn(C2OC(COP(=O)(O)O)C(O)C2O)c(=O)[nH]1` (stereo not drawn) [UMP], the LC retention time falls from 14.2 min to 9.35 min (1.5-fold).

Going from `NC(CCC(=O)NC(CSSCC(NC(=O)CCC(N)C(=O)O)C(=O)NCC(=O)O)C(=O)NCC(=O)O)C(=O)O` (stereo not drawn) [GSSG] to `CC(=O)NC(CC(=O)O)C(=O)O` (stereo not drawn) [N-Acetylaspartic acid], the LC retention time falls from 15.4 min to 9.45 min (1.6-fold).

`CCC(C)C(N)C(=O)O` (stereo not drawn) [Isoleucine] and `CC(C)C(N)C(=O)O` (stereo not drawn) [Valine] are within 1.5-fold of each other in LC retention time: 5.8 min for the first, 6.3 min for the second.

Compared with `CC(O)C(=O)O` (stereo not drawn) [Lactic Acid], `CC(O)C(N)C(=O)O` (stereo not drawn) [Threonine] is 2.5-fold higher in LC retention time: 3.24 min for the first, 8.21 min for the second.

Compared with `CC(C)CC(N)C(=O)O` (stereo not drawn) [Leucine], `NC(CO)C(=O)O` (stereo not drawn) [Serine] is 1.6-fold higher in LC retention time: 5.52 min for the first, 8.67 min for the second.

`O=C(O)CC(O)C(=O)O` (stereo not drawn) [Malic Acid] and `O=C(O)CC(=O)O` [Malonic Acid] are within 1.5-fold of each other in LC retention time: 12.9 min for the first, 9.18 min for the second.

Compared with `CSCCC(N)C(=O)O` (stereo not drawn) [Methionine], `NCCCC(N)C(=O)O` (stereo not drawn) [Ornithine] is 3-fold higher in LC retention time: 5.98 min for the first, 18.1 min for the second.

`NC(=O)C1=CN(C2OC(COP(=O)(O)OP(=O)(O)OCC3OC(n4cnc5c(N)ncnc54)C(O)C3O)C(O)C2O)C=CC1` (stereo not drawn) [NADH] and `NC(=O)c1ccc[n+](C2OC(COP(=O)(O)OP(=O)(O)OCC3OC(n4cnc5c(N)ncnc54)C(O)C3O)C(O)C2O)c1` (stereo not drawn) [NAD] are within 1.5-fold of each other in LC retention time: 9.31 min for the first, 9.03 min for the second.

`NC(=O)c1ccc[n+](C2OC(COP(=O)(O)OP(=O)(O)OCC3OC(n4cnc5c(N)ncnc54)C(OP(=O)(O)O)C3O)C(O)C2O)c1` (stereo not drawn) [NADP] and `CC(=O)NC1C(OP(=O)(O)OP(=O)(O)OCC2OC(n3ccc(=O)[nH]c3=O)C(O)C2O)OC(CO)C(O)C1O` (stereo not drawn) [UDP-GlcNAc] are within 1.5-fold of each other in LC retention time: 13.4 min for the first, 11.9 min for the second.

`NC(=O)c1ccc[n+](C2OC(COP(=O)([O-])O)C(O)C2O)c1` (stereo not drawn) [NMN] and `O=c1ccn(C2OC(COP(=O)(O)OP(=O)(O)OP(=O)(O)O)C(O)C2O)c(=O)[nH]1` (stereo not drawn) [UTP] are within 1.5-fold of each other in LC retention time: 9.92 min for the first, 14.2 min for the second.

Going from `O=C(O)c1cccnc1` [Nicotinic acid] to `NC(Cc1ccccc1)C(=O)O` (stereo not drawn) [Phenylalanine], the LC retention time rises from 2.38 min to 5.17 min (2.2-fold).

`C=C(OP(=O)(O)O)C(=O)O` [PEP] and `O=C(O)C(CO)OP(=O)(O)O` (stereo not drawn) [Phosphoglyceric acid A] are within 1.5-fold of each other in LC retention time: 13.7 min for the first, 13.6 min for the second.

`O=C(O)C1CCCN1` (stereo not drawn) [Proline] and `O=C(O)C1(O)CC(O)C(O)C(O)C1` (stereo not drawn) [Quinic Acid] are within 1.5-fold of each other in LC retention time: 6.54 min for the first, 6.61 min for the second.

`O=C(O)CCC(=O)O` [Succinic Acid] and `O=C(CO)COP(=O)(O)O` [Triose phosphate] are within 1.5-fold of each other in LC retention time: 11.6 min for the first, 10.9 min for the second.

`NC(Cc1c[nH]c2ccccc12)C(=O)O` (stereo not drawn) [Tryptophan] and `NC(Cc1ccc(O)cc1)C(=O)O` (stereo not drawn) [Tyrosine] are within 1.5-fold of each other in LC retention time: 6.14 min for the first, 6.96 min for the second.
